Data set [1] has as its system Mus musculus. Nature of the data set: Anti-inflammatory activity against carrageenan-induced paw edema mouse model assessed as reduction in edema measured after 3 hrs relative to control. The format is functional. On the set-up: scale not given: the % may be the effect or the level left. (In general: In the carrageenan paw model, swelling and tenderness develop within hours.)

The test system of data set [2] is Mus musculus. Nature of the data set: Anti-inflammatory activity against carrageenan-induced paw edema mouse model assessed as reduction in edema measured after 1 hrs relative to control. Also noted: scale not given: the % may be the effect or the level left. The format is functional.
Data set [3] relates to Mus musculus. Nature of the data set: Anti-inflammatory activity against carrageenan-induced paw edema mouse model assessed as reduction in edema measured after 2 hrs relative to control. Format: functional. Also noted: scale not given: the % may be the effect or the level left.
Data set [4] concerns Plasmodium falciparum. Nature of the data set: Potency index, ratio of chloroquine IC50 to test compound IC50 for antimalarial activity against Plasmodium falciparum Dd2. Format: functional.
For data set [5], the system named is Plasmodium falciparum. Nature of the data set: Antimalarial activity against chloroquine sensitive sorbitol synchronized Plasmodium falciparum 3D7 assessed as inhibition of parasite growth incubated for 72 hrs by HRP2 ELISA based assay. The format is functional, organism-based. The settings on record: 3D7, 72 h. A general note: An ELISA detects its analyte on a solid surface through an enzyme-linked reagent.

Data set [6] deals with Plasmodium falciparum. Description: Antimalarial activity against chloroquine resistant sorbitol synchronized Plasmodium falciparum W2 assessed as inhibition of parasite growth incubated for 72 hrs by HRP2 ELISA based assay. The format is functional, organism-based. The following applies: W2, 72 h.
Data set [7] in a line: Inhibition of ConA-induced IL-1beta secretion in female BALB/c mouse splenocyte incubated for 48 hrs by ELISA. The format is functional, cell-based.
Data set [8] relates to SARS-CoV. Description: Antiviral activity against SARS-CoV 2019-nCoV infected in african green monkey Vero E6 cells. Format: functional. The settings on record: Severe acute respiratory syndrome-related coronavirus, Vero C1008.
Data set [9] is described as follows: Inhibition of ConA-induced TNF-alpha secretion in female BALB/c mouse splenocyte incubated for 48 hrs by ELISA. Format: functional, cell-based.
The nature of data set [10]: Inhibition of ConA-induced IL-6 secretion in female BALB/c mouse splenocyte incubated for 48 hrs by ELISA. The format is functional, cell-based.
Data set [11] deals with Acetylcholinesterase (Homo sapiens, UniProt P22303). Description: Inhibition of AChE (unknown origin).
Sequence of Acetylcholinesterase (Homo sapiens, UniProt P22303) (P22303 whole entry): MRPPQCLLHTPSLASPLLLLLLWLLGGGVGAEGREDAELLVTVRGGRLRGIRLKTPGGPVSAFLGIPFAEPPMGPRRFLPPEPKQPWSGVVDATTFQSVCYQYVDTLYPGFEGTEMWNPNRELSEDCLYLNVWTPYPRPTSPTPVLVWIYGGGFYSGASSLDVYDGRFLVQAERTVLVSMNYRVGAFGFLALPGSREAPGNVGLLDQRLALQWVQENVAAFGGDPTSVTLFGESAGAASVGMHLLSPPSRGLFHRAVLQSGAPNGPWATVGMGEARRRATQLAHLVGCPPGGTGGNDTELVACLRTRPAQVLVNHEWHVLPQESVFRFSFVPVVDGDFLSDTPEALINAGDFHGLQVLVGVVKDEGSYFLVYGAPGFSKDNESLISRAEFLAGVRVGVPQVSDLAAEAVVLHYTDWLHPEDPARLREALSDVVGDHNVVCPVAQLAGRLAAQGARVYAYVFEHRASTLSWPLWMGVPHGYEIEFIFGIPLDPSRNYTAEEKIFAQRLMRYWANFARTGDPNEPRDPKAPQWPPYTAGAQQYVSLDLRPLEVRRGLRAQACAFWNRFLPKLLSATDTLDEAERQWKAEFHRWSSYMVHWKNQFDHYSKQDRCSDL
The subject of data set [12] is Plasmodium falciparum. Description: Antiplasmodial activity against chloroquine resistant Plasmodium falciparum K1 infected in human erythrocytes incubated for 48 hrs by lactate dehydrogenase assay. Format: functional, organism-based. The following applies: K1, Erythrocyte.
The test system of data set [13] is Leishmania amazonensis. Nature of the data set: Antileishmanial activity against Leishmania amazonensis amastigotes infected in mouse macrophages assessed as inhibition of parasite growth incubated for 72 hrs by giemsa staining based analysis. Format: functional, organism-based. The following applies: Macrophage.
Data set [14] in a line: Selectivity index, ratio of CC50 for cytotoxicity against mouse macrophage to IC50 for antileishmanial activity against Leishmania amazonensis amastigotes infected in mouse macrophages assessed as inhibition of parasite growth. The format is toxicity, cell-based. The following applies: read-out: Ratio CC50/IC50.
In data set [15] the test system is Leishmania amazonensis. Description: Antileishmanial activity against Leishmania amazonensis promastigotes infected in mouse macrophages assessed as inhibition of parasite growth incubated for 72 hrs by giemsa staining based analysis. The settings on record: Macrophage. Format: functional, organism-based.
In data set [16] the target is Cholinesterase (Equus caballus, UniProt P81908). Nature of the data set: Inhibition of equine serum BChE using […] as substrate measured within 2 mins.
Sequence of Cholinesterase (P81908 whole entry): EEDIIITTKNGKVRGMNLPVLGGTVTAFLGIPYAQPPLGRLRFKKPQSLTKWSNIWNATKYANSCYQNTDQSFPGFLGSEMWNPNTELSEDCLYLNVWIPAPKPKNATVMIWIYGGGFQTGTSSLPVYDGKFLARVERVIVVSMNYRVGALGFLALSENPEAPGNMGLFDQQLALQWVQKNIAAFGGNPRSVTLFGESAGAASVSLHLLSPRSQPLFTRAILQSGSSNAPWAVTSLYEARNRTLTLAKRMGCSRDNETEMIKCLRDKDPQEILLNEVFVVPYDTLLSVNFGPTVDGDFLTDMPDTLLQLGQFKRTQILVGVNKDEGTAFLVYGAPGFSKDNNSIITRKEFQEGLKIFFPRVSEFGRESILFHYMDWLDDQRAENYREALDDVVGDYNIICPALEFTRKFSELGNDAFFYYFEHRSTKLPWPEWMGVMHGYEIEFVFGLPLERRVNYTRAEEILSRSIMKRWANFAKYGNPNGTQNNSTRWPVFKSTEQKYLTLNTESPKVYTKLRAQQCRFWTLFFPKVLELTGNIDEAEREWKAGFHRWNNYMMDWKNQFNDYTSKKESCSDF
The target in data set [17] is Acetylcholinesterase (Electrophorus electricus, UniProt O42275). Description: Inhibition of electric eel AChE using […] as substrate measured within 2 mins.
Sequence of Acetylcholinesterase (Electrophorus electricus, UniProt O42275) (O42275 whole entry): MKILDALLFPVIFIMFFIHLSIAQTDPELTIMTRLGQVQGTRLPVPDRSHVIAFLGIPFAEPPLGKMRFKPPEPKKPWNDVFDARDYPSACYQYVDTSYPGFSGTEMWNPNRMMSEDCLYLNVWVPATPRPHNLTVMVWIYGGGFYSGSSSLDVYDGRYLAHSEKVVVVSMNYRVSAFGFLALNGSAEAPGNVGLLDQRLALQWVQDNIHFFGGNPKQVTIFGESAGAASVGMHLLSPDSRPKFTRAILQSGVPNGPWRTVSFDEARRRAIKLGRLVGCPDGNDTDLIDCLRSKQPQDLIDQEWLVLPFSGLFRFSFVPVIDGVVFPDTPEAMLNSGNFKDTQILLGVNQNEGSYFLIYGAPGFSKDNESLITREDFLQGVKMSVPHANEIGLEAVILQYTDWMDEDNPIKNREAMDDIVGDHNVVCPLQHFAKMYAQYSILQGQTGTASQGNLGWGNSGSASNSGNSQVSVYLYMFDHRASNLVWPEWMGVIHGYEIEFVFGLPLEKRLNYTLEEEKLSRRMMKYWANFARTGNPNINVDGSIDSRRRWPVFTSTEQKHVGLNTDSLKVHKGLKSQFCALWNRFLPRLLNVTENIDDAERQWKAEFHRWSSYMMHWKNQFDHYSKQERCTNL
Data set [18] concerns the target Beta-secretase 1 (Homo sapiens, UniProt P56817). Description: Inhibition of BACE1 (unknown origin) by FRET assay.
Data set [19] has as its system Mycobacterium tuberculosis. Nature of the data set: Antitubercular activity against Mycobacterium tuberculosis H37Rv assessed as inhibition of visible bacterial growth incubated for 7 days by broth microdilution method. The format is functional. The settings on record: 168 h, time 7 day. On the technique in general: Dilution methods test growth across graded concentrations, often in twofold steps.

Data set [20] has as its system HepG2. Nature of the data set: Cytotoxicity against human HepG2 cells assessed as cell viability incubated for 24 hrs by MTT assay relative to control. The format is functional.
The test system of data set [21] is Plasmodium falciparum. Description: Antiplasmodial activity against chloroquine sensitive Plasmodium falciparum 3D7 incubated for 72 hrs by SYBR green I based fluorescence assay. The following applies: 3D7, 72 h. The format is functional, organism-based.
A short description of data set [22]: Cytotoxicity against African green monkey Vero cells assessed as reduction in cell viability incubated for 3 to 10 days by MTS assay. The format is toxicity, cell-based. The following applies: chlorocebus sabaeus, time 3-10 day.
Data set [23] concerns Zika virus. Description: Antiviral activity against Zika virus infected in African green monkey Vero cells assessed as reduction in virus-induced cytopathic effect incubated for 3 to 10 days by MTS assay. Format: functional, organism-based.
For data set [24], the system named is NCI-H460. Nature of the data set: Anticancer activity against human NCI-H460 cells assessed as cell growth inhibition incubated for 72 hrs by MTT assay. The format is functional.
Data set [25] relates to HCT-116. Nature of the data set: Anticancer activity against human HCT-116 cells assessed as cell growth inhibition incubated for 72 hrs by MTT assay. The format is functional.
A short description of data set [26]: Cytotoxicity against human HEp-2 cells assessed as reduction in cell viability incubated for 3 to 10 days by MTS assay. The settings on record: time 3-10 day. Format: toxicity, cell-based.
Data set [27] deals with LN-229. Nature of the data set: Anticancer activity against human LN-229 cells assessed as cell growth inhibition by MTS assay. The format is functional.
Data set [28] concerns HL-60. Description: Anticancer activity against human HL-60 cells assessed as cell growth inhibition incubated for 72 hrs by CellTiter96 aqueous Non-Radioactive Cell Proliferation Assay. Format: functional.
Data set [29] concerns Coxsackievirus. Nature of the data set: Antiviral activity against Coxsackievirus B4 infected in human HEp-2 cells assessed as reduction in virus-induced cytopathic effect incubated for 3 to 10 days by MTS assay. The format is functional, organism-based. The settings on record: B4, HEp-2.
Data set [30] can be described thus: Anticancer activity against human DND41 cells assessed as cell growth inhibition incubated for 72 hrs by CellTiter96 aqueous Non-Radioactive Cell Proliferation Assay. The format is functional.
Data set [31] deals with CAPAN-1. Description: Anticancer activity against human CAPAN-1 cells assessed as cell growth inhibition by MTS assay. Format: functional.
For data set [32], the system named is MCF7. Description: Antiproliferative activity against human MCF7 cells assessed as cell growth inhibition incubated for 72 hrs by MTT assay. Format: functional.
For data set [33], the system named is K562. Nature of the data set: Anticancer activity against human K562 cells assessed as cell growth inhibition incubated for 72 hrs by CellTiter96 aqueous Non-Radioactive Cell Proliferation Assay. The format is functional.
Data set [34] concerns Z-138. Description: Anticancer activity against human Z138 cells assessed as cell growth inhibition incubated for 72 hrs by CellTiter96 aqueous Non-Radioactive Cell Proliferation Assay. The format is functional.

SMILES strings stand for the structures. Converted amounts (≈) assume the structure as drawn.

Sequence of Beta-secretase 1 (P56817 whole entry): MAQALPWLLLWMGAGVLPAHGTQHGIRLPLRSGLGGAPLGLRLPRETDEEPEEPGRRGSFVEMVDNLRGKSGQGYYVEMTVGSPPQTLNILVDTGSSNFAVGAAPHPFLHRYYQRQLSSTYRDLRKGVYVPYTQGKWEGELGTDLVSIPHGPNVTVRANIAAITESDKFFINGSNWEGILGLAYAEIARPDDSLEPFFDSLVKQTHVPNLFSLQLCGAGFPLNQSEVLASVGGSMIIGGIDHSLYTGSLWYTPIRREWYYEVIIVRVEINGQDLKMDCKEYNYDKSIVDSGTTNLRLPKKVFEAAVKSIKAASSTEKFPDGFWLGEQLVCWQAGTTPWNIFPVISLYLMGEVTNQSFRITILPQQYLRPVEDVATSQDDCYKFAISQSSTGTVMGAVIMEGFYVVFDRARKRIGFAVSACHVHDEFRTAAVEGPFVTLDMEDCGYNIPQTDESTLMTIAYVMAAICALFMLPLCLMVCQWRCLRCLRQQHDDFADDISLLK

On to `O=C(CN1CCN(c2ccccc2)CC1)N1CCN(c2ccnc3cc(Cl)ccc23)CC1`, for which the Activity in [1] was found to be 64%; in data set [2], 34%; in [3], 50%.

In the case of `CC(C)Cc1ccc(C(C)C(=O)NCCNc2ccnc3cc(Cl)ccc23)cc1` (centres undefined), the “Ratio IC50” value in data set [4] is 4.

`COc1cc(NC(C)CCCN)c2ncccc2c1` (centres undefined) [PRIMAQUINE]: the IC50 was 1.12 µM in [5] and 0.182 µM in data set [6].

For the compound `CCN(CC)CCCC(C)Nc1ccnc2cc(Cl)ccc12` (centres undefined) [CHLOROQUINE], the IC50 in [7] was found to be 2.72 µM; in data set [9], 35 µM; in [10], 14.6 µM. Further, the EC90 in data set [8] was 6.9 µM.

`O=P(NCCCCCCCCCCCCNc1c2c(nc3ccccc13)CCCC2)(Oc1ccccc1)Oc1ccccc1` had an IC50 in data set [11] of 24300 µM.

In turn, `CCOC(=O)c1nn(CCNc2ccnc3cc(Cl)ccc23)c2c1C(c1ccc(CC)cc1)C(C#N)=C(N)O2` (centres undefined) came in with an EC50 in data set [12] of 0.02 µM.

Turning to `CCCCCCCCCCn1cc(CNCCNc2ccnc3cc(Cl)ccc23)nn1`, the half-inhibitory concentration (IC50) stood at 1.1 µM in data set [13] and 5.7 µM in data set [15]. Besides, the selectivity ratio in data set [14] is 16.

For `Nc1c2c(nc3c1C(c1cccc([N+](=O)[O-])c1)C1=C(O3)C(=O)c3ccccc3C1=O)CCCC2` (centres undefined), the IC50 came to 6.03 µM in data set [16], 0.86 µM in data set [17] and 19.6 µM in data set [18].

Consider `CC(CNc1ccnc2cc(Cl)ccc12)NC(=O)Nc1nc2ccc(C(F)(F)F)cc2s1` (centres undefined), for which the MIC in data set [19] was 0.968 µM (≈ 0.465 µg/mL). Further, the Activity in data set [20] came out at 100%.

`O=C(Cn1cc(COc2ccc(Br)cc2)nn1)NCCNc1ccnc2cc(Cl)ccc12` came in with an IC50 in data set [21] of 0.04 µM.

On to `C/C(=C\C(=O)NCCCCNc1cc(C(F)(F)F)nc2c(C(F)(F)F)cccc12)C(=O)NCCCCNc1cc(C(F)(F)F)nc2c(C(F)(F)F)cccc12`, for which the CC50 in data set [22] was found to be 10 µM; in data set [26], 6.7 µM. The EC50 in [23] and in [29] was 0.85 µM each time. For the same compound, the GI50 in data set [24] is 3 µM; in data set [25], 2.4 µM; in data set [27], 2.4 µM; in data set [28], 2.6 µM; in data set [30] it was 7.9 µM; in [31], 2.3 µM. In addition, the GI50 in [32] was found to be 0.7 µM; in data set [33], 8.6 µM; in data set [34], 6.9 µM.

Usually IC50 stands for the point on the concentration scale where inhibition reaches its midpoint. In general, EC90 refers to the concentration needed for an effect of 90%. The term EC50 denotes the concentration needed to bring the measured effect to its halfway point. For orientation: MIC means the least concentration at which growth counts as inhibited. The term CC50 denotes the concentration giving 50% cytotoxicity. The term GI50 denotes the concentration at which growth is held to half of that of the control.
